This note sets out measurements from paper PMC12670426 (Journal of Medicinal Chemistry, 2025).

SMILES strings stand for the structures. Where two headings read alike, the source gives them in different places.

For test [1], the target named is T1, human galectin-3C (Gal-3C, C-terminal CRD of galectin-3) (Homo sapiens, UniProt P17931).
T1 construct: only the C-terminal domain was used (Gal-3C); 6xHis tag with TEV protease site (N, cleaved yes); made in house; host or cells: BL21 Escherichia coli (pET-15b)
The test is described as follows: Competitive fluorescence polarization assay, Gal-3C. Type of test: binding. The method, then: (§1) Our investigation of the structure–activity relationship of N-aryl-N-lactosylamides started with an initial screening of substituted acetanilides (Table ). These compounds can be readily synthesized from a wide range of commercially available substituted anilines. Affinity was evaluated using a fluorescence polarization assay, which enables reliable determination of dissociation constants (K d) between small molecules and galectins. All inhibitors in this series were tested against the two most common human galectins: Gal-1 and Gal-3. Gal-1 is a prototype galectin consisting of a single CRD and was used in full length. In the case of Gal-3, which consists of the C-terminal CRD and N-terminal unfolded region, only the C-terminal domain was used (Gal-3C). Affinities were compared to methyl β-lactoside (β-LacOMe) as a baseline.
(§2) Fluorescence polarization experiments for determining inhibitor affinities were performed using the same instrumentation and settings as described for the direct binding experiments. […] The galectin–probe mixture was subsequently added using a Certus Flex liquid handler (Fritz Gyger AG, Switzerland) to reach a final volume of 5 μL. Anisotropy was measured after 30–60 min incubation at 25 °C. Inhibitor dissociation constants (K d) were calculated using Wang’s exact cubic model for competitive binding implemented in the BindCurve package. Protein and probe concentrations used in these competitive experiments are provided in the Supporting Information.
(§3) Competitive binding was modeled by Wang’s exact cubic model,3 which is written as […]
(§4) r = rmin + (rmax − rmin) 3 (6) […]
(§5) where r, rmin and rmax have the same meaning as in Equation 1. The coefficients a, b, and c are […]
(§6) a = Kd∗ + Kd + [L∗]T + [L]T − [R]T (7) b = Kd∗([L]T − [R]T) + Kd([L∗]T − [R]T) + Kd∗ Kd (8) […]
(§7) where Kd∗ is the dissociation constant of the probe, Kd is the dissociation constant of the […]
(§8) the unlabeled ligand, and [R]T is the total concentration of the receptor. The angle θ is defined […]
(§9) In the competitive binding experiments, the values of [L∗]T, [R]T and Kd∗ are known and [L]T is titrated. The values of minimal and maximal anisotropy rmin and rmax were fixed during fitting at the values of the minimal and maximal asymptotes obtained from the direct binding experiments. The value of Kd was calculated as the only unfixed parameter in the model.
(§10) Experimental constants used for the competitive fluorescence polarization experiments are […]
(§11) Table S2. Experimental constants used for competitive fluorescence polarization experiments. […]

Test [2] deals with T2, human galectin-1 (Gal-1, full length) (Homo sapiens, UniProt P09382).
T2 construct: Gal-1 is a prototype galectin consisting of a single CRD and was used in full length; 6xHis tag with TEV protease site (N, cleaved yes); made in house; host or cells: BL21 Escherichia coli (pET-15b)
Description: Competitive fluorescence polarization assay, Gal-1. Type of test: binding. The protocol: as §1, §2, §3, §4, §5, §6, §7, §8, §9, §10, §11
(In general: Polarisation of emitted light reports the rotation of a fluorescent probe.)

Where [3] appears, read: CSV supplement, unrounded mean, read-out: Gal3C_IC50_mean_uM.
Setting [4] is: CSV supplement, unrounded mean, read-out: Gal3C_Kd_mean_uM.
The mark [5] stands for this setting: competitive fluorescence polarization, mean ± SD, read-out: Kd Gal-3C.
Where [6] appears, read: four-parameter logistic model, mean ± SD, read-out: IC50 Gal-3C.
[7] abbreviates: CSV supplement, unrounded mean, read-out: Gal1_IC50_mean_uM.
The mark [8] stands for this setting: CSV supplement, unrounded mean, read-out: Gal1_Kd_mean_uM.
The mark [9] stands for this setting: competitive fluorescence polarization, mean ± SD, read-out: Kd Gal-1.
Setting [10] is: four-parameter logistic model, mean ± SD, read-out: IC50 Gal-1.

T1 sequence (P17931 118-248 limits assumed): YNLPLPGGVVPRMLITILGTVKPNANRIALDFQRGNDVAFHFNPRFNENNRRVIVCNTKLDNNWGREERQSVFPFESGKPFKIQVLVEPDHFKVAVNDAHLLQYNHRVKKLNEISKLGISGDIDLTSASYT
T2 sequence (P09382 2-135): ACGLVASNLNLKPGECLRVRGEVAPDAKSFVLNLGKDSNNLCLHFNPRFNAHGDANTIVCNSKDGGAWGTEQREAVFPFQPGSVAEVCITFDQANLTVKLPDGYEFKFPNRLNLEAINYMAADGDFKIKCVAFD

For `CC(=O)N(c1ccccc1)[C@@H]1O[C@H](CO)[C@@H](O[C@@H]2O[C@H](CO)[C@H](O)[C@H](O)[C@H]2O)[C@H](O)[C@H]1O` [Compound 3a, N-[4-O-(β-D-Galactopyranosyl)-β-D-glucopyranosyl]-N-phenylacetamide], the IC50 in test [1] (setting [3]) worked out at 287 µM; in test [1] (setting [6]) it was 290 ± 1 µM; in test [2] (setting [7]) it was 908 µM; in test [2] (setting [10]) it was 910 ± 20 µM. Moreover, the Kd in test [1] (setting [4]) came out at 106 µM; in test [1] (setting [5]), 110 ± 30 µM; in test [2] (setting [8]), 586 µM; in test [2] (setting [9]), 590 ± 80 µM. Besides, the “improvement in affinity toward Gal-3C compared to β-LacOMe” value in test [1] (compared to β-LacOMe) was “approximately 2 fold”. Further, the “improvement in affinity toward Gal-1 compared to β-LacOMe” value in test [2] (compared to β-LacOMe) is listed as “approximately 2 fold”.
Take `CC(=O)N(c1cccc(-c2cn(C)nn2)c1)[C@@H]1O[C@H](CO)[C@@H](O[C@@H]2O[C@H](CO)[C@H](O)[C@H](O)[C@H]2O)[C@H](O)[C@H]1O` [Compound 3aa, N-[4-O-(β-D-Galactopyranosyl)-β-D-glucopyranosyl]-N-[3-(1-methyl-1H-1,2,3-triazol-4-yl)phenyl]acetamide]: the IC50 is 191 µM in test [1] (setting [3]), 190 ± 9 µM in test [1] (setting [6]), 899 µM in test [2] (setting [7]) and 900 ± 100 µM in test [2] (setting [10]). For the same compound, the Kd is 68.7 µM in test [1] (setting [4]), 69 ± 20 µM in test [1] (setting [5]), 571 µM in test [2] (setting [8]) and 570 ± 60 µM in test [2] (setting [9]).
Take `CC(=O)N(c1cc(Cl)cc(C(=O)O)c1)[C@@H]1O[C@H](CO)[C@@H](O[C@@H]2O[C@H](CO)[C@H](O)[C@H](O)[C@H]2O)[C@H](O)[C@H]1O` [Compound 3ab, N-[4-O-(β-D-Galactopyranosyl)-β-D-glucopyranosyl]-N-(3-carboxy-5-chlorophenyl)acetamide]: the IC50 in test [1] (setting [3]) was 130 µM; in test [1] (setting [6]), 130 ± 3 µM; in test [2] (setting [7]) it was 957 µM; in test [2] (setting [10]) it was 960 ± 40 µM. Also, the Kd in test [1] (setting [4]) turned out to be 50 µM; in test [1] (setting [5]), 50 ± 9 µM; in test [2] (setting [8]), 651 µM; in test [2] (setting [9]), 650 ± 100 µM.
As for `CC(=O)N(c1cc(Br)cc(C(=O)O)c1)[C@@H]1O[C@H](CO)[C@@H](O[C@@H]2O[C@H](CO)[C@H](O)[C@H](O)[C@H]2O)[C@H](O)[C@H]1O` [Compound 3ac, N-[4-O-(β-D-Galactopyranosyl)-β-D-glucopyranosyl]-N-(3-bromo-5-carboxyphenyl)acetamide], the IC50 worked out at 160 µM in test [1] (setting [3]), 160 ± 20 µM in test [1] (setting [6]), 967 µM in test [2] (setting [7]) and 970 ± 30 µM in test [2] (setting [10]). Further, the Kd was determined as 60.2 µM in test [1] (setting [4]), 60 ± 10 µM in test [1] (setting [5]), 625 µM in test [2] (setting [8]) and 630 ± 100 µM in test [2] (setting [9]).
As to `COC(=O)c1cc(N(C(C)=O)[C@@H]2O[C@H](CO)[C@@H](O[C@@H]3O[C@H](CO)[C@H](O)[C@H](O)[C@H]3O)[C@H](O)[C@H]2O)c2cc[nH]c2c1` [Compound 3ae, N-[4-O-(β-D-Galactopyranosyl)-β-D-glucopyranosyl]-N-[6-(methylcarboxy)-1H-indol-4-yl]acetamide], the IC50 in test [1] (setting [3]) came to 42.5 µM; in test [1] (setting [6]), 43 ± 4 µM; in test [2] (setting [7]), 1030 µM; in test [2] (setting [10]) it was 1000 ± 100 µM. Also, the Kd amounted to 15.9 µM in test [1] (setting [4]), 16 ± 2 µM in test [1] (setting [5]), 637 µM in test [2] (setting [8]) and 640 ± 90 µM in test [2] (setting [9]).
Consider `CC(=O)N(c1ccc(C)cc1)[C@@H]1O[C@H](CO)[C@@H](O[C@@H]2O[C@H](CO)[C@H](O)[C@H](O)[C@H]2O)[C@H](O)[C@H]1O` [Compound 3b, N-[4-O-(β-D-Galactopyranosyl)-β-D-glucopyranosyl]-N-(4-methylphenyl)acetamide], for which the IC50 amounted to 404 µM in test [1] (setting [3]), 400 ± 50 µM in test [1] (setting [6]), 919 µM in test [2] (setting [7]) and 920 ± 90 µM in test [2] (setting [10]). For the same compound, the Kd stood at 133 µM in test [1] (setting [4]), 130 ± 20 µM in test [1] (setting [5]), 481 µM in test [2] (setting [8]) and 480 ± 100 µM in test [2] (setting [9]).
With `C#Cc1cccc(N(C(C)=O)[C@@H]2O[C@H](CO)[C@@H](O[C@@H]3O[C@H](CO)[C@H](O)[C@H](O)[C@H]3O)[C@H](O)[C@H]2O)c1` [Compound 3c, N-[4-O-(β-D-Galactopyranosyl)-β-D-glucopyranosyl]-N-(3-ethynylphenyl)acetamide], the IC50 in test [1] (setting [3]) amounted to 500 µM; in test [1] (setting [6]), 500 ± 30 µM; in test [2] (setting [7]) it was 1570 µM; in test [2] (setting [10]), 1600 ± 300 µM. Besides, the Kd in test [1] (setting [4]) came to 182 µM; in test [1] (setting [5]), 180 ± 50 µM; in test [2] (setting [8]) it was 1010 µM; in test [2] (setting [9]) it was 1000 ± 70 µM.
Turning to `CC(=O)N(c1cccc(C(F)(F)F)c1)[C@@H]1O[C@H](CO)[C@@H](O[C@@H]2O[C@H](CO)[C@H](O)[C@H](O)[C@H]2O)[C@H](O)[C@H]1O` [Compound 3d, N-[4-O-(β-D-Galactopyranosyl)-β-D-glucopyranosyl]-N-(3-trifluoromethylphenyl)acetamide], the IC50 in test [1] (setting [3]) came to 489 µM; in test [1] (setting [6]) it was 490 ± 60 µM; in test [2] (setting [7]), 1040 µM; in test [2] (setting [10]), 1000 ± 90 µM. The Kd in test [1] (setting [4]) amounted to 160 µM; in test [1] (setting [5]), 160 ± 30 µM; in test [2] (setting [8]), 560 µM; in test [2] (setting [9]), 560 ± 100 µM.
Regarding `CC(=O)N(c1ccc(F)cc1)[C@@H]1O[C@H](CO)[C@@H](O[C@@H]2O[C@H](CO)[C@H](O)[C@H](O)[C@H]2O)[C@H](O)[C@H]1O` [Compound 3e, N-[4-O-(β-D-Galactopyranosyl)-β-D-glucopyranosyl]-N-(4-fluorophenyl)acetamide], the IC50 in test [1] (setting [3]) came out at 275 µM; in test [1] (setting [6]), 270 ± 10 µM; in test [2] (setting [7]), 595 µM; in test [2] (setting [10]) it was 590 ± 70 µM. Further, the Kd in test [1] (setting [4]) is 87.1 µM; in test [1] (setting [5]) it was 87 ± 10 µM; in test [2] (setting [8]), 322 µM; in test [2] (setting [9]) it was 320 ± 100 µM.
On to `CC(=O)N(c1cccc(F)c1)[C@@H]1O[C@H](CO)[C@@H](O[C@@H]2O[C@H](CO)[C@H](O)[C@H](O)[C@H]2O)[C@H](O)[C@H]1O` [Compound 3f, N-[4-O-(β-D-Galactopyranosyl)-β-D-glucopyranosyl]-N-(3-fluorophenyl)acetamide], for which the IC50 worked out at 305 µM in test [1] (setting [3]), 300 ± 50 µM in test [1] (setting [6]), 671 µM in test [2] (setting [7]) and 670 ± 30 µM in test [2] (setting [10]). Besides, the Kd was determined as 98.1 µM in test [1] (setting [4]), 98 ± 3 µM in test [1] (setting [5]), 361 µM in test [2] (setting [8]) and 360 ± 20 µM in test [2] (setting [9]).
For `CC(=O)N(c1ccccc1F)[C@@H]1O[C@H](CO)[C@@H](O[C@@H]2O[C@H](CO)[C@H](O)[C@H](O)[C@H]2O)[C@H](O)[C@H]1O` [Compound 3g, N-[4-O-(β-D-Galactopyranosyl)-β-D-glucopyranosyl]-N-(2-fluorophenyl)acetamide], the IC50 in test [1] (setting [3]) is 282 µM; in test [1] (setting [6]) it was 280 ± 20 µM; in test [2] (setting [7]) it was 931 µM; in test [2] (setting [10]), 930 ± 8 µM. Further, the Kd worked out at 93.2 µM in test [1] (setting [4]), 93 ± 20 µM in test [1] (setting [5]), 507 µM in test [2] (setting [8]) and 510 ± 30 µM in test [2] (setting [9]).
